Our source for the hygroscopicity values is patent publication US6465515B2, “Solid compositions suitable for oral administration containing non-hydroscopic salts of L-carnitine and alkanoyl L-carnitines” (Sigma-Tau Industrie Farmaceutiche Riunite S.p.A., priority 1998, dated 2002).

This data set is described as follows: hygroscopicity of the salts. Type of data set: physicochemical. The conditions noted are these: isolated solid.

For `CCC(=O)O[C@H](CC(=O)O)C[N+](C)(C)C` [Example 1, Propionyl L-carnitine Pamoate], the hygroscopicity result is listed as “non-hygroscopic”.
Regarding `CC(=O)O[C@H](CC(=O)O)C[N+](C)(C)C` [Example 3, Acetyl L-carnitine Pamoate], the hygroscopicity entry is on record as “non-hygroscopic”.
